{"source": "paper PMC4841544", "about": "“Molecular Basis of Ligand-Dependent Regulation of NadR, the Transcriptional Repressor of Meningococcal Virulence Factor NadA” (PLoS Pathogens, 2016)", "format_in_all_cases": "binding", "key": {"[1]": {"target": "T1, NadR (Neisseria adhesin A Regulator) (Neisseria meningitidis, UniProt Q7DD70)", "T1 sequence (Q7DD70 entry or part of it)": "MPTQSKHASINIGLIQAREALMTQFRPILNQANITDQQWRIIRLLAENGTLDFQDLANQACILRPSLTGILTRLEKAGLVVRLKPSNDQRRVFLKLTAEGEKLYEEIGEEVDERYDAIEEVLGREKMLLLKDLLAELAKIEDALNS", "assay": "SPR steady-state; DSC (ΔTm […] °C)", "design": "gene NMB1843; NadR residues M1-S146, His-tag removed by thrombin (149 residues)"}, "[2]": {"target": "T1, NadR (Neisseria adhesin A Regulator)", "assay": "SPR steady-state; DSC; 1H-15N TROSY-HSQC NMR", "design": "gene NMB1843; NadR residues M1-S146, His-tag removed by thrombin (149 residues); SeMet derivative for the crystal"}, "[3]": {"target": "T1, NadR (Neisseria adhesin A Regulator)", "assay": "SPR steady-state; DSC (ΔTm […] °C)", "design": "gene NMB1843; NadR residues M1-S146, His-tag removed by thrombin (149 residues)", "remark": "listed apart in the source"}}}
{"smiles": "O=C(O)Cc1cccc(O)c1", "note": "[3-HPA]", "values": [{"measurement": "Kd", "setting": "[1]", "result": "2700 ± 100", "unit": "µM"}]}
{"smiles": "O=C(O)Cc1ccc(O)cc1", "note": "[4-HPA, 4-hydroxyphenylacetate]", "values": [{"measurement": "Kd", "setting": "[2]", "result": "1500 ± 100", "unit": "µM"}]}
{"smiles": "O=C(O)Cc1ccc(O)c(Cl)c1", "note": "[3Cl,4-HPA]", "values": [{"measurement": "Kd", "setting": "[3]", "result": "1100 ± 100", "unit": "µM"}]}
